Measurements taken from US9012446B2, “Amino-oxazines and amino-dihydrothiazine compounds as beta-secretase modulators and methods of use” (Amgen Inc., priority 2010, dated 2015).
Like-named read-outs stand apart in the source and are kept apart here.

Experiments:
BACE = BACE (Homo sapiens, UniProt P56817); assay: In vitro enzymatic BACE FRET assay; assay type: biochemical; settings: average IC50, enzyme assay; read-out: BACE 1 FRET assay
In short: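 Fluorescence […] after Tris quench reports cleavage of a 50 nM quenched peptide substrate over 1 h. Beforehand, 0.2 nM enzyme sits 1 h with inhibitor dilutions. Buffer: 0.05 M acetate pH 4.2, 100 uM genapol, 10% DMSO final.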

Aβ40 = assay: In vitro BACE cell-based assay (Aβ40 sandwich ELISA, cells stably expressing APP); settings: Homo sapiens
In short: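 Read-out is Aβ40 in cell supernatants, quantified by sandwich ELISA (capture 3 h, detection 2 h, both 4° C) with Delfia time-resolved fluorescence. Cells stably expressing APP were dosed across 10 concentrations from 100 μM or 10 μM top, 0.1% DMSO final; IC50 fitted from percent of control.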

Abeta 40 = assay: In vivo inhibition of beta-secretase: Abeta 40 reduction in CSF and brain of the rat; settings: after 4 hrs; for inhibition in vivo at 10 mg/kg: 10 mpk; for % reduction of rat CSF levels / % reduction of rat brain levels: at 30 mpk
Excerpt: In Vivo Inhibition of Beta-Secretase
Several animal models, including mouse, rat, dog, and monkey, may be used to screen for inhibition of beta-secretase activity in vivo following administration of a test compound sample. Animals used in this invention can be wild type, transgenic, or gene knockout animals. For example, the Tg2576 mouse model, prepared and conducted as described in Hsiao et al., 1996, Science 274, 99-102, and other non-transgenic or gene knockout animals are useful to analyze in vivo inhibition of Amyloid beta peptide (Abeta) production in the presence of inhibitory test compounds. Generally, 2 to 18 month old Tg2576 mice, gene knockout mice or non-transgenic animals are administered test compounds formulated in vehicles, such as cyclodextran, phosphate buffers, hydroxypropyl methylcellulose or other suitable vehicles. One to twenty-four hours following the administration of compound, animals are sacrificed, and brains as well as cerebrospinal fluid (CSF) and plasma are removed for analysis of A-beta levels and drug or test compound concentrations (Dovey et al., 2001, Journal of Neurochemistry, 76,173-181) Beginning at time 0, animals are administered by oral gavage, or other means of delivery such as intravenous injection, an inhibitory test compound of up to 100 mg/kg in a standard, conventional formulation, such as 2% hydroxypropyl methylcellulose, 1% Tween80. A separate group of animals receive 2% hydroxypropyl methylcellulose, 1% Tween80 alone, containing no test compound, and serve as a vehicle-control group. At the end of the test period, animals are sacrificed and brain tissues, plasma or cerebrospinal fluid are collected. Brains are either homogenized in 10 volumes (w/v) of 0.2% diethylamine (DEA) in 50 mM NaCl (Best et al., 2005, Journal of Pharmacology and Experimental Therapeutics, 313, 902-908), or in 10 volumes of 0.5% TritonX-100 in Tris-buffered saline (pH at about 7.6). Homogenates are centrifuged at 355,000 g, 4° C. for 30 minutes. CSF or brain supernatants are then analyzed for the presence of A-beta peptide by specific sandwich ELISA assays based on ECL (Electrochemiluminescence) technology. For example, rat Abeta40 is measured using biotinylated-4G8 (Signet) as a capture antibody and Fab40 (an in-house antibody specific to the C-terminal of Abeta40) as a detection antibody. For example, 4 hours after administration of 30 mg/kg oral dose of the test compound in 2% hydroxypropyl methylcellulose, 1% Tween80 (pH2.2) to 200 g male Sprague Dawley rats, amyloid beta peptide levels are measured for reduction by X % and Y % in cerebrospinal fluid and brain, respectively, when compared to the levels measured in the vehicle-treated rats. • Actual vehicles used: Oral: 2% HPMC, 1% Tween80, pH 2.2 • IV: 5% EtOH, 45% Propylene glycol in 5% Dextrose
The compounds of the invention may be shown to reduce the formation and/or deposition of amyloid beta peptide in the cerebrospinal fluid (CSF) as well as in the brain of a mouse or rat at either 3 mpk, 10 mpk or 30 mpk (mpk=mg compound per kg weight of the animal) dosing concentrations after 4 hrs.

[1] = HEK293, average IC50, cell assay, HEK cells
[2] = Abeta 40, rat CSF, read-out: % reduction of rat CSF levels at 10 pmk
[3] = Abeta 40, rat brain, read-out: % reduction of rat brain levels at 10 mpk
[4] = HEK293, average IC50, read-out: HEK cell assay

Sequence of BACE (P56817 46-501, species assumed): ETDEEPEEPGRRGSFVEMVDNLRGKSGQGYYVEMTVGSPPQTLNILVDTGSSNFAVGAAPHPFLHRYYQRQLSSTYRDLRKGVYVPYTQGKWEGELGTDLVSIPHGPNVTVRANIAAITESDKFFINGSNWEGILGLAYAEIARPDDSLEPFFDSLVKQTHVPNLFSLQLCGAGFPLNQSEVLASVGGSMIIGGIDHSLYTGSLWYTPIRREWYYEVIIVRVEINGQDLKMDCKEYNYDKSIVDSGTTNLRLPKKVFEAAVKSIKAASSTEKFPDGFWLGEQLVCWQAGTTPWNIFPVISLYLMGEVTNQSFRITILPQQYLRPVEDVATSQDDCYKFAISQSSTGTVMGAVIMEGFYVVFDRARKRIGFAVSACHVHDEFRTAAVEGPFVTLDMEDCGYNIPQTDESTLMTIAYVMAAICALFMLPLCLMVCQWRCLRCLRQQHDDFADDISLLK

Structure (SMILES) | IC50 (BACE) | IC50 (Aβ40; [1]) | IC50 (Aβ40; [4]) | inhibition in vivo at 10 mg/kg (Abeta 40; [2]) | inhibition in vivo at 10 mg/kg (Abeta 40; [3]) | % reduction of rat CSF levels (Abeta 40; Abeta 40, rat CSF) | % reduction of rat brain levels (Abeta 40; Abeta 40, rat brain)
NC1=N[C@@]2(CCO1)c1cc(-c3cccnc3F)ccc1Oc1cnc(C3=CCCOC3)cc12 [Example 153, (S)-3-(5,6-dihydro-2H-pyran-3-yl)-7-(2-fluoropyridin-3-yl)-5′,6′-dihydrospiro[chromeno[2,3-c]pyridine-5,4′-[1,3]oxazin]-2′-amine] | 2 nM | 2.6 nM |  | 78% | 64% |  | 
NC1=N[C@@]2(CCO1)c1cc(-c3cccnc3F)ccc1Oc1cnc(-c3cncc(F)c3)cc12 [Example 155, (5S)-7-(2-fluoro-3-pyridinyl)-3-(5-fluoro-3-pyridinyl)-5′,6′-dihydrospiro[chromeno[2,3-c]pyridine-5,4′-[1,3]oxazin]-2′-amine] | 3.8 nM | 6.2 nM |  | 68% | 53% |  | 
NC1=N[C@@]2(CCO1)c1cc(-c3cccnc3F)ccc1Oc1c(F)cc(-c3cccnc3)cc12 [Example 168, (S)-4′-fluoro-7′-(2-fluoropyridin-3-yl)-2′-(pyridin-3-yl)-5,6-dihydrospiro[[1,3]oxazine-4,9′-xanthen]-2-amine] | 3.5 nM |  | 6.3 nM | 44% | 18% |  | 
CC(C)(F)COc1cc(F)c2c(c1)[C@]1(CCOC(N)=N1)c1cc(-c3cccnc3)ccc1O2 [Example 176, (S)-4′-fluoro-2′-(2-fluoro-2-methylpropoxy)-7′-(pyridin-3-yl)-5,6-dihydrospiro[[1,3]oxazine-4,9′-xanthen]-2-amine] | 6.1 nM |  | 8.5 nM | 30% | 13% |  | 
NC1=N[C@@]2(CCO1)c1cc(-c3cccnc3F)ccc1Oc1c(F)cc(N3CCOCC3)cc12 [Example 184, (S)-4′-fluoro-7′-(2-fluoropyridin-3-yl)-2′-morpholino-5,6-dihydrospiro[[1,3]oxazine-4,9′-xanthen]-2-amine] | 4.8 nM |  | 6.9 nM | 19% | 12% |  | 
NC1=N[C@@]2(CCS1)c1cc(-c3cccnc3F)ccc1Oc1c(F)cc(C3=CCCOC3)cc12 [Example 201, (S)-2′-(5,6-dihydro-2H-pyran-3-yl)-4′-fluoro-7′-(2-fluoropyridin-3-yl)-5,6-dihydrospiro[[1,3]thiazine-4,9′-xanthen]-2-amine] | 1.4 nM |  | 9.7 nM |  |  | 80% at 30 mpk | 65% at 30 mpk
NC1=N[C@@]2(COC1)c1cc(-c3cc(F)ccc3F)ccc1Oc1ncc(-c3ccnc(F)c3)cc12 [Example 220, (S)-7-(2,5-difluorophenyl)-3-(2-fluoropyridin-4-yl)-2′,6′-dihydrospiro[chromeno[2,3-b]pyridine-5,3′-[1,4]oxazin]-5′-amine] | 2 nM |  | 4.4 nM | 38% | 2% |  | 
NC1=N[C@@]2(CCO1)c1cc(-c3cccnc3)ccc1Oc1c2cc(-c2ccnc(F)c2)nc1F [Example 239, (S)-1-fluoro-3-(2-fluoropyridin-4-yl)-7-(pyridin-3-yl)-5′,6′-dihydrospiro[chromeno[2,3-c]pyridine-5,4′-[1,3]oxazin]-2′-amine] | 35 nM |  | 16.1 nM | 68% | 48% |  | 

Further compounds by falling IC50 (BACE), results first:

IC50 (BACE) | IC50 (Aβ40; [1]) | IC50 (Aβ40; [4]) | Structure (SMILES) | inhibition in vivo at 10 mg/kg (Abeta 40; [2]) | inhibition in vivo at 10 mg/kg (Abeta 40; [3]) | % reduction of rat CSF levels (Abeta 40; Abeta 40, rat CSF) | % reduction of rat brain levels (Abeta 40; Abeta 40, rat brain)
6 nM |  | 8.2 nM | NC1=N[C@@]2(CCO1)c1cc(-c3cccnc3F)ccc1Oc1c(F)cc(-c3ccncc3)cc12 [Example 166, (S)-4′-fluoro-7′-(2-fluoropyridin-3-yl)-2′-(pyridin-4-yl)-5,6-dihydrospiro[[1,3]oxazine-4,9′-xanthen]-2-amine] | 42% | 25% |  | 
5.8 nM | 5 nM |  | CC(C)(C)C#Cc1cc2c(cn1)Oc1ccc(-c3cccnc3F)cc1[C@@]21CCOC(N)=N1 [Example 154, (S)-3-(3,3-dimethylbut-1-ynyl)-7-(2-fluoropyridin-3-yl)-5′,6′-dihydrospiro[chromeno[2,3-c]pyridine-5,4′-[1,3]oxazin]-2′-amine] | 57% | 37% |  | 
4.8 nM | 4.2 nM |  | NC1=N[C@@]2(CCO1)c1cc(-c3cccnc3)ccc1Oc1c(F)cc(C3=CCOCC3)cc12 [Example 156, (4S)-2′-(3,6-dihydro-2H-pyran-4-yl)-4′-fluoro-7′-(3-pyridinyl)-5,6-dihydrospiro[1,3-oxazine-4,9′-xanthen]-2-amine] | 27% | 8% |  | 
4.4 nM |  | 9.6 nM | NC1=N[C@@]2(CCO1)c1cc(-c3cccnc3F)ccc1Oc1c(F)cc(N3CCC(F)(F)CC3)cc12 [Example 185, (4S)-2′-(4,4-difluoro-1-piperidinyl)-4′-fluoro-7′-(2-fluoro-3-pyridinyl)-5,6-dihydrospiro[1,3-oxazine-4,9′-xanthen]-2-amine] |  |  | 53% at 30 mpk | 26% at 30 mpk
2.8 nM |  | 2.7 nM | NC1=N[C@@]2(CCO1)c1cc(-c3cccnc3)ccc1Oc1c(F)cc(C3=CCCOC3)cc12 [Example 164, (S)-2′-(5,6-dihydro-2H-pyran-3-yl)-4′-fluoro-7′-(pyridin-3-yl)-5,6-dihydrospiro[[1,3]oxazine-4,9′-xanthen]-2-amine] | 35% | 12% |  | 
2.6 nM |  | 6 nM | NC1=N[C@@]2(CCO1)c1cc(-c3cccnc3F)ccc1Oc1c(F)cc(C3=CCOCC3)cc12 [Example 163, (S)-2′-(3,6-dihydro-2H-pyran-4-yl)-4′-fluoro-7′-(2-fluoropyridin-3-yl)-5,6-dihydrospiro[[1,3]oxazine-4,9′-xanthen]-2-amine] | 52% | 28% |  | 
2.5 nM |  | 4.1 nM | CC(C)(F)COc1cc(F)c2c(c1)[C@]1(CCOC(N)=N1)c1cc(-c3cccnc3F)ccc1O2 [Example 182, (S)-4′-fluoro-2′-(2-fluoro-2-methylpropoxy)-7′-(2-fluoropyridin-3-yl)-5,6-dihydrospiro[[1,3]oxazine-4,9′-xanthen]-2-amine] | 59% | 30% |  | 
1.4 nM |  | 1.6 nM | NC1=N[C@@]2(CCO1)c1cc(-c3cncc(F)c3)ccc1Oc1c2cc(-c2ccnc(F)c2)nc1F [Example 226, (S)-1-fluoro-7-(5-fluoropyridin-3-yl)-3-(2-fluoropyridin-4-yl)-5′,6′-dihydrospiro[chromeno[2,3-c]pyridine-5,4′-[1,3]oxazin]-2′-amine] | 83% | 74% |  | 
1.1 nM |  | 2.9 nM | NC1=N[C@@]2(CCO1)c1cc(-c3cccnc3F)ccc1Oc1c(F)cc(C3=CCCOC3)cc12 [Example 173, (S)-2′-(5,6-dihydro-2H-pyran-3-yl)-4′-fluoro-7′-(2-fluoropyridin-3-yl)-5,6-dihydrospiro[[1,3]oxazine-4,9′-xanthen]-2-amine] | 40% | 14% |  | 
